Experiment [1] has as its system HeLa (human cervical carcinoma) cells. In words: Cell growth assay (XTT), HeLa. The settings on record: 72 h drug exposure, read-out: Antiproliferative activity IC50 HeLa. Format: cell-based. The gist of the method: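 Cells (1.5 × 10^4 cells/mL for MCF7, HeLa, HEK293; 3 × 10^4 cells/mL for HT-29) attached 24 h, then treated 72 h at 37 °C, 5% CO2. Screened at 1 µM; IC50 versus untreated controls from 10^−5 to 10^−10 M by nonlinear fit. XTT/PMS absorbance at 450 nm after 4 h (MCF7, HeLa) or 6 h (HT-29, HEK293); HT-29 with 10 µM verapamil.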

The next experiment relates to HeLa cells. In words: Cell cycle analysis (PI, flow cytometry), HeLa. The experiment is classed as cell-based, human. On the procedure: (§1) MCF7, HeLa, and HT-29 cell cycle analyses were performed by quantifying the DNA content by flow cytometry. Cells in the exponential growth phase at 2 × 10^4 cells/mL were seeded in 24-well plates (1 ml/well). After 24 h incubation, cells were treated with compound 25 at 87.5 or 175 nM. After 24, 48, and 72 h treatments, live and dead cells were collected and fixed in ice-cold ethanol:PBS (7:3) and stored at 4 °C for later use. Cells were rehydrated with phosphate-buffered saline (PBS), treated with 100 µg/mL RNase A (Sigma-Aldrich Co., St. Louis, MO, USA), and stained overnight in darkness at room temperature with 50 µg/mL propidium iodide (PI) (Sigma-Aldrich Co.). Cell cycle profiles were then analysed by flow cytometry using BD Accuri™ C6 Plus Flow Cytometer (BD Biosciences, San José, CA, USA). Data were analysed with BD Accuri™ C6 Software (version 1.0.264.21, BD Biosciences, San José, CA, USA) and compared to control cells treated with 0.5% (v/v) DMSO. Compounds were dissolved in DMSO and the final solvent concentrations never exceeded 0.5% (v/v).

The test system of another experiment is HT-29 cells. In words: Cell cycle analysis (PI, flow cytometry), HT-29. Format: cell-based, human. On the procedure: as §1
The next experiment deals with p-62 in HeLa cells. Put plainly: Western blot of autophagosome marker p-62, HeLa. Format: cell-based, human. The settings on record: 175 nM, 24 h. On the procedure: MCF7, HeLa and HT-29 cells in an exponential growth phase at 2 × 10^4 cells/mL were seeded in Petri dishes (20 × 100 mm) (10 ml/dish). After 24 h incubation, cells were treated with compound 25 at 175 nM, and the levels of p-62 in treated and untreated cells were measured at 24 h post-treatment. The culture medium was removed, cells were washed with PBS and resuspended in 1 ml lysis buffer (50 mM Tris, 130 mM NaCl, 1 mM EDTA, 1% Triton X-100) containing protease inhibitors (Complete, Roche Applied Science, Indianapolis). Cells were harvested and incubated with lysis buffer for 30 min at 4 °C in constant agitation. Cell extracts were centrifuged at 12,000 rpm for 15 min at 4 °C and the supernatants were stored at −80 °C. Protein concentrations were determined using Bradford (BioRad, Hercules, CA) method taking BSA (Bovine Serum Albumin) as standard. Protein extracts were used for electrophoresis mixing with loading buffer (4% SDS, 0.05% bromophenol blue, 20% glycerine, 2% β-mercaptoethanol, and Tris 100 mM at pH 6.8). Proteins were then denatured at 95 °C for 7 min. Protein samples (50 μg/lane) were subjected to electrophoresis on 8% acrylamide gel and SDS-PAGE running buffer at constant voltage (140 V). Then, acrylamide gels were transferred to a PVDF membrane (Merck Millipore, Burlington, Massachusetts, USA) using a semi-dry transfer system for 30 min at constant voltage (15 V). […]

[2] abbreviates: HT-29, 48 h, concentration not specified.

The values that follow come from PMC8205030, “Methoxy and bromo scans on N-(5-methoxyphenyl) methoxybenzenesulphonamides reveal potent cytotoxic compounds, especially against the human breast adenocarcinoma MCF7 cell line” (Journal of Enzyme Inhibition and Medicinal Chemistry, 2021).

The structures appear in SMILES notation. pIC50: −log10 of the molar value.

As to `COc1ccc(S(=O)(=O)N(CC#N)c2cc(OC)c(Br)cc2OC)cc1` [Compound 25, N-(4-bromo-2,5-dimethoxyphenyl)-N-(cyanomethyl)-4-methoxybenzenesulphonamide], the pIC50 in experiment [1] is 7.44. For the same molecule, the “Cells at G2/M phase” value in the experiment with HeLa cells (87.5 nM, 24 h) was 82%; in the experiment with HeLa cells (87.5 nM, 48 h), 54%; in the experiment with HeLa cells (87.5 nM, 72 h) it was 41%; in the experiment on HeLa cells (175 nM, 24 h), 86%; in the experiment on HeLa cells (175 nM, 48 h), 48%; in the experiment on HeLa cells (175 nM, 72 h), 49%. Besides, the “Cells at G2/M phase” value in the experiment on HT-29 cells (HT-29, 87.5 nM, 24 h) stood at 90%; with HT-29 cells (HT-29, 87.5 nM, 72 h) it was 58%; in the experiment with HT-29 cells (HT-29, 175 nM, 24 h) it was 83%; in the experiment with HT-29 cells (HT-29, 175 nM, 72 h) it was 54%; with HT-29 cells (setting [2]), 84%. The subG0/G1 population is given as 34% in the experiment on HeLa cells (87.5 nM, 48 h); 29% in the experiment on HeLa cells (175 nM, 48 h); 38% with HeLa cells (72 h, one value printed for 87.5 and 175 nM); 23% in the experiment with HT-29 cells (HT-29, 87.5 nM, 72 h); 31% in the experiment on HT-29 cells (HT-29, 175 nM, 72 h); 9% in the experiment on HT-29 cells (setting [2]). Besides, the p-62 levels result in the experiment with p-62 in HeLa cells is listed as “almost complete reduction in the expression of p-62”.
